This passage reports IC50 results from patent publication US9862716B2, “TRKA kinase inhibitors, compositions and methods thereof” (Merck Sharp & Dohme Corp., priority 2014, dated 2018).

pIC50: −log10 of the molar value.

This experiment has as its target T1, human TrkA receptor (Homo sapiens, UniProt P04629).
T1 construct: host or cells: U2OS cells (PathHunter cell line)
The experiment in a line: DiscoverX PathHunter TrkA functional assay (NGF-stimulated U2OS cells). The class given is cell-based. The settings on record: U2OS cells expressing human TrkA-PK, Shc1-EA and p75NTR; compound 1 h, then NGF at ~80% of maximal response for 3 h; luminescence.

The pIC50 is the negative decadic logarithm of the IC50, by convention in mol/L. Higher therefore signals a low IC50.

T1 sequence (P04629 33-796): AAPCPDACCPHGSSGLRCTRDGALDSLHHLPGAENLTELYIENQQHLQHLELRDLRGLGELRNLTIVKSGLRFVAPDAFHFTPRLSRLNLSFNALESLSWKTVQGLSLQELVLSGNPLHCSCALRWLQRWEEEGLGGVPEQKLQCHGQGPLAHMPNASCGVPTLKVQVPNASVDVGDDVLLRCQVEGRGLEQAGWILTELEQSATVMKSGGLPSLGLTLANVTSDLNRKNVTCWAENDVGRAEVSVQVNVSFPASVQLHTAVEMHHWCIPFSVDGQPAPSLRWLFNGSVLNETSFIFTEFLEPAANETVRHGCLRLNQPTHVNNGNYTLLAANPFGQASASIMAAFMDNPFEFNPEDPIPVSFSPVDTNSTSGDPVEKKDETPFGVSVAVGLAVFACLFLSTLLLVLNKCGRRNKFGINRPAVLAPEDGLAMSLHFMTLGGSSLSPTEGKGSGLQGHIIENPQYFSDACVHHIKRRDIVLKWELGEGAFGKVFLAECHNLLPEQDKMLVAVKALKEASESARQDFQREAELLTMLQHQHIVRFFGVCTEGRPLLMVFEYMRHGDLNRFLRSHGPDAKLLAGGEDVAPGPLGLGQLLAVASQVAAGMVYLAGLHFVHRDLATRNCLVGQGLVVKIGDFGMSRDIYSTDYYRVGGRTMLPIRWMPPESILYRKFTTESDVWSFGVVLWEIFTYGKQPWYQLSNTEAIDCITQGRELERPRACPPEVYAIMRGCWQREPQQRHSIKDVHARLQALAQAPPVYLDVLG

Regarding `CC(O)c1ccn2nc(-c3ccccc3)c(NC(=O)c3cc(-c4ccn(C)n4)c(C(F)(F)F)cc3F)c2c1` (single isomer, unassigned) [Compound 106, (R or S)-2-fluoro-N-[5-(1-hydroxyethyl)-2-phenylpyrazolo[1,5-a]pyridin-3-yl]-5-(1-methyl-1H-pyrazol-3-yl)-4-(trifluoromethyl) benzamide], the pIC50 was 8.77. With `CC(O)c1ccn2nc(-c3ccccc3)c(NC(=O)c3cc(-c4ccn(C)n4)c(C(F)(F)F)cc3F)c2c1` (single isomer, unassigned) [Compound 107, (R or S)-2-fluoro-N-[5-(1-hydroxyethyl)-2-phenylpyrazolo[1,5-a]pyridin-3-yl]-5-(1-methyl-1H-pyrazol-3-yl)-4-(trifluoromethyl) benzamide] the figure was 9.07; with `CC(O)c1ccc2[nH]c(-c3ccccc3)c(NC(=O)c3cc(-c4ccn(C)n4)c(C(F)(F)F)cc3F)c2c1` (single isomer, unassigned) [Compound 112, (R or S)-2-fluoro-N-[5-(1-hydroxyethyl)-2-phenyl-1H-indol-3-yl]-5-(1-methyl-1H-pyrazol-3-yl)-4-(trifluoromethyl) benzamide], 8.85; with `CC(O)c1ccc2[nH]c(-c3ccccc3)c(NC(=O)c3cc(-c4ccn(C)n4)c(C(F)(F)F)cc3F)c2c1` (single isomer, unassigned) [Compound 113, (R or S)-2-fluoro-N-[5-(1-hydroxyethyl)-2-phenyl-1H-indol-3-yl]-5-(1-methyl-1H-pyrazol-3-yl)-4-(trifluoromethyl) benzamide], 8.77. With `Cn1ccc(-c2cc(C(=O)Nc3c(-c4ccccc4)nc4cc(C5CCCN5)ccn34)ccc2C(F)(F)F)n1` (single isomer, unassigned) [Compound 114, (R or S)-3-(1-methyl-1H-pyrazol-3-yl)-N-(2-phenyl-7-pyrrolidin-2-ylimidazo[1,2-a]pyridin-3-yl)-4-(trifluoromethyl) benzamide] the figure was 7.82. In turn, `O=C(Nc1c(-c2ccccc2)nc2ccccn12)c1ccc(OC(F)(F)F)cc1` [Compound 1, N-(2-phenylimidazo[1,2-a]pyridin-3-yl)-4-(trifluoromethoxy) benzamide] gave a pIC50 of 6.26. With `O=C(Nc1c(-c2ccccc2)nc2sccn12)c1ccc(C(F)(F)F)cc1F` [Compound 2, 2-fluoro-N-(6-phenylimidazo[2,1-b][1,3]thiazol-5-yl)-4-(trifluoromethyl) benzamide] the figure was 6.86. In turn, `Cn1ccc(-c2cc(C(=O)Nc3c(-c4ccccc4)nc4ncccn34)ccc2C(F)(F)F)n1` [Compound 3, 3-(1-methyl-1H-pyrazol-3-yl)-N-(2-phenylimidazo[1,2-a]pyrimidin-3-yl)-4-(trifluoromethyl) benzamide] gave a pIC50 of 8.23.

In the case of `Cn1ccc(-c2cc(C(=O)Nc3c(-c4ccccc4)nc4ccccn34)ccc2C(F)(F)F)n1` [Compound 4, 3-(1-methyl-1H-pyrazol-3-yl)-N-(2-phenylimidazo[1,2-a]pyridin-3-yl)-4-(trifluoromethyl) benzamide], the negative-log IC50 (pIC50) was 8.85. For `Cn1ccc(-c2cc(C(=O)Nc3c(-c4ccccn4)nc4ccccn34)ccc2C(F)(F)F)n1` [Compound 5, 3-(1-methyl-1H-pyrazol-3-yl)-N-(2-pyridin-2-ylimidazo[1,2-a]pyridin-3-yl)-4-(trifluoromethyl) benzamide] the value was 7.92; for `Cn1ccc(-c2cc(C(=O)Nc3c(-c4ccccc4)nc4cccnn34)ccc2C(F)(F)F)n1` [Compound 6, 3-(1-methyl-1H-pyrazol-3-yl)-N-(2-phenylimidazo[1,2-b]pyridazin-3-yl)-4-(trifluoromethyl) benzamide], 8.41.

`CC(C)c1cccc2nc(-c3ccccc3)c(NC(=O)c3ccc(C(F)(F)F)cc3F)n12` [Compound 7, 2-fluoro-N-[5-(1-methylethyl)-2-phenylimidazo[1,2-a]pyridin-3-yl]-4-(trifluoromethyl) benzamide] had a negative logarithm of the IC50 (pIC50) of 6.58. Take `Cn1ccc(-c2cc(C(=O)Nc3c(-c4ccncn4)nc4ccccn34)ccc2C(F)(F)F)n1` [Compound 8, 3-(1-methyl-1H-pyrazol-3-yl)-N-(2-pyrimidin-4-ylimidazo[1,2-a]pyridin-3-yl)-4-(trifluoromethyl) benzamide]: the negative logarithm of the IC50 (pIC50) is 6.25.

Regarding `O=C(Nc1c(-c2ccccc2)nc2ccccn12)c1ccc(C(F)(F)F)c(-c2cc[nH]n2)c1` [Compound 9, N-(2-phenylimidazo[1,2-a]pyridin-3-yl)-3-(1H-pyrazol-3-yl)-4-(trifluoromethyl) benzamide], the pIC50 was 8.06. With `O=C(Nc1c(-c2ccno2)nc2ccccn12)c1ccc(C(F)(F)F)cc1F` [Compound 10, 2-fluoro-N-(2-isoxazol-5-ylimidazo[1,2-a]pyridin-3-yl)-4-(trifluoromethyl) benzamide] the figure was 5.72; with `O=C(Nc1c(-c2ccccc2)nc2ccccn12)c1ccc(C(F)(F)F)c(-c2ccn(C(F)F)n2)c1` [Compound 11, 3-[1-(difluoromethyl)-1H-pyrazol-3-yl]-N-(2-phenylimidazo[1,2-a]pyridin-3-yl)-4-(trifluoromethyl) benzamide], 8.49.

`Cn1ccc(-c2cc(C(=O)Nc3c(-c4ccccc4)nc4sccn34)ccc2C(F)(F)F)n1` [Compound 12, 3-(1-methyl-1H-pyrazol-3-yl)-N-(6-phenylimidazo[2,1-b][1,3]thiazol-5-yl)-4-(trifluoromethyl) benzamide] showed a pIC50 of 8.72.

`Cc1cnn(-c2nc3ccccn3c2NC(=O)c2ccc(C(F)(F)F)c(-c3ccn(C)n3)c2)c1` [Compound 13, 3-(1-methyl-1H-pyrazol-3-yl)-N-[2-(4-methyl-1H-pyrazol-1-yl)imidazo[1,2-a]pyridin-3-yl]-4-(trifluoromethyl) benzamide]: the negative logarithm of the IC50 (pIC50) is 7.77.

Turning to `Cc1coc(-c2cc(C(=O)Nc3c(-c4ccccc4)nc4ccccn34)ccc2C(F)(F)F)n1` [Compound 14, 3-(4-methyl-1,3-oxazol-2-yl)-N-(2-phenylimidazo[1,2-a]pyridin-3-yl)-4-(trifluoromethyl) benzamide], the negative logarithm of the IC50 (pIC50) is 8.48. For `Cc1ccc(C(=O)Nc2c(-c3ccccc3)nc3ccccn23)cc1-c1ccn(C)n1` [Compound 15, 4-methyl-3-(1-methyl-1H-pyrazol-3-yl)-N-(2-phenylimidazo[1,2-a]pyridin-3-yl)benzamide] the value was 7.59. In turn, `Cc1nc(-c2nc3ccccn3c2NC(=O)c2ccc(C(F)(F)F)c(-c3ccn(C)n3)c2)co1` [Compound 16, N-[2-(2-methyl-1,3-oxazol-4-yl)imidazo[1,2-a]pyridin-3-yl]-3-(1-methyl-1H-pyrazol-3-yl)-4-(trifluoromethyl) benzamide] showed a negative-log IC50 (pIC50) of 6.25. With `Cn1ccc(-c2cc(C(=O)Nc3c(-c4ccccc4)nc4scnn34)ccc2C(F)(F)F)n1` [Compound 17, 3-(1-methyl-1H-pyrazol-3-yl)-N-(6-phenylimidazo[2,1-b][1,3,4]thiadiazol-5-yl)-4-(trifluoromethyl) benzamide] the figure was 8.04; with `O=C(Nc1c(-c2ccccc2)nc2c(F)cccn12)c1ccc(C(F)(F)F)c(-c2cc[nH]n2)c1` [Compound 18, N-(8-fluoro-2-phenylimidazo[1,2-a]pyridin-3-yl)-3-(1H-pyrazol-3-yl)-4-(trifluoromethyl) benzamide], 7.96.

Compound `Cc1nc(-c2nc3ccccn3c2NC(=O)c2ccc(C(F)(F)F)c(-c3ccn(C)n3)c2)cs1` [Compound 19, 3-(1-methyl-1H-pyrazol-3-yl)-N-[2-(2-methyl-1,3-thiazol-4-yl)imidazo[1,2-a]pyridin-3-yl]-4-(trifluoromethyl) benzamide] had a pIC50 of 7.85.

Turning to `Cn1ccc(-c2cc(C(=O)Nc3c(-c4ccccc4)nc4ccccn34)c(Cl)cc2C(F)(F)F)n1` [Compound 20, 2-chloro-5-(1-methyl-1H-pyrazol-3-yl)-N-(2-phenylimidazo[1,2-a]pyridin-3-yl)-4-(trifluoromethyl) benzamide], the pIC50 is 9.14. For `Cn1ccc(-c2cc(C(=O)Nc3c(-c4ccccc4)nc4ccc(F)cn34)ccc2C(F)(F)F)n1` [Compound 21, N-(6-fluoro-2-phenylimidazo[1,2-a]pyridin-3-yl)-3-(1-methyl-1H-pyrazol-3-yl)-4-(trifluoromethyl) benzamide] the value was 8.42; for `Cn1ccc(-c2cc(C(=O)Nc3c(-c4ccccc4)nc4c(F)cccn34)ccc2C(F)(F)F)n1` [Compound 22, N-(8-fluoro-2-phenylimidazo[1,2-a]pyridin-3-yl)-3-(1-methyl-1H-pyrazol-3-yl)-4-(trifluoromethyl) benzamide], 8.72.

`Cn1ccc(-c2cc(C(=O)Nc3c(-c4ccncc4)nc4ccccn34)c(Cl)cc2C(F)(F)F)n1` [Compound 23, 2-chloro-5-(1-methyl-1H-pyrazol-3-yl)-N-(2-pyridin-4-ylimidazo[1,2-a]pyridin-3-yl)-4-(trifluoromethyl) benzamide] showed a pIC50 of 8.70.

With `Cn1ccc(-c2cc(C(=O)Nc3c(-c4ccccc4)nc4ncccn34)c(Cl)cc2C(F)(F)F)n1` [Compound 24, 2-chloro-5-(1-methyl-1H-pyrazol-3-yl)-N-(2-phenylimidazo[1,2-a]pyrimidin-3-yl)-4-(trifluoromethyl) benzamide], the pIC50 is 8.55. For `CNC(=O)c1ccn2c(NC(=O)c3ccc(C(F)(F)F)c(-c4ccn(C)n4)c3)c(-c3ccccc3)nc2c1` [Compound 25, N-methyl-3-({[3-(1-methyl-1H-pyrazol-3-yl)-4-(trifluoromethyl)phenyl]carbonyl}amino)-2-phenylimidazo[1,2-a]pyridine-7-carboxamide] the value was 8.85; for `Cn1ccc(-c2cc(C(=O)Nc3c(-c4ccccc4)nc4cc(CO)ccn34)ccc2C(F)(F)F)n1` [Compound 26, N-[7-(hydroxymethyl)-2-phenylimidazo[1,2-a]pyridin-3-yl]-3-(1-methyl-1H-pyrazol-3-yl)-4-(trifluoromethyl) benzamide], 8.85.
